Biological target: T1, human LPA1 (Homo sapiens, UniProt Q92633)
T1 construct: expressed in transfected cells; host or cells: CHO-K1
Assay: In vitro LPA1 calcium flux antagonist assay, Bioduro protocol
Format: cell-based
Conditions: CHO-K1 cells overexpressing human LPA1 and G15a; LPA challenge at EC80; calcium mobilization on FLIPR Tetra; read-out: IC50 (nM) in Assay B2
Protocol: In Vitro LPA1 Calcium Flux Antagonist Assay Bioduro Protocol
CHO-K1 cells overexpressing human LPA1 and G15a were seeded at a total volume of 20 uL (15000 cells/well) into Matrigel pre-coated 384-well plates (coming -3764) and incubated at 37° C. After overnight incubation, the cells were serum starved for 4 h. Assays were performed in dye loading buffer containing 1× Fluo-8 AM (AAT Bioquest, 21080) and 2.5 mM probenecid (Thermo Fisher, 36400) in HBSS/20 mM Hepes. After cell starvation, the medium was replaced with 20 uL of dye loading buffer and incubated at 37° C. for 30 min. Then 5 uL of 5× compound titrated in dye loading buffer was added to the cells and incubated for 30 min followed by LPA challenge at EC80. Calcium mobilization was measured on a FLIPR Tetra (MDS). For LPA EC80 determination, starved cells were incubated with 20 uL of dye loading buffer for 1 h, then 5 uL of 5×LPA titrated in dye loading buffer was added to the cells. Calcium signals induced by LPA was monitors on a FLIPR.
Percentage inhibition is calculated using the following formula:
% Inhibition=100%×(1−(mean RFU of test sample−mean RFU of DMSO)/(mean RFU of LPA control−mean RFU of DMSO)).

T1 sequence (Q92633 whole entry): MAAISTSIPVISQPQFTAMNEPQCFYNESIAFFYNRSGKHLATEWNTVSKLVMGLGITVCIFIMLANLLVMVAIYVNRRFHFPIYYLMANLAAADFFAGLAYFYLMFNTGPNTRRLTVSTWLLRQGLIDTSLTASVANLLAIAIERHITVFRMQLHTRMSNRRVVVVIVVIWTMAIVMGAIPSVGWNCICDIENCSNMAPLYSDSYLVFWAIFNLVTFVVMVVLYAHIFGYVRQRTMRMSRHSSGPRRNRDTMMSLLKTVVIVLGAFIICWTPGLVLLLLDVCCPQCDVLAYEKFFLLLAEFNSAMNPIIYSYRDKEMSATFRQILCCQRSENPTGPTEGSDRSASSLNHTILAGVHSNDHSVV

IC50 | SMILES
153 nM | COc1cc([C@@H](O)[C@H](Cn2cc3ccc(C#N)c(C(=O)O)c3n2)OC2CCCC2)cc(OC)c1C [Compound 180]
91.8 nM | COc1cc([C@@H](O)[C@H](Cn2cc3cc(C(N)=O)cc(C(=O)O)c3n2)OC2CCCC2)cc(OC)c1C [Compound 221]
149 nM | COc1cc([C@@H](O)[C@H](Cn2cc3cc(C#N)cc(C(=O)O)c3n2)OC2CCCC2)ccc1C1CC1 [Compound 227]
2.51 nM | COc1cc([C@@H](O)[C@H](Cc2nc3c(C(=O)O)cc(C4CC4)cc3s2)OC2CCCC2)cc(OC)c1C [Compound 245]
27.2 nM | COc1cc([C@@H](O)[C@H](Cn2cc3cc(C#N)cc(C(=O)O)c3n2)OCC(C)C)cc(OC)c1C [Compound 232]
138 nM | COc1cc([C@@H](O)[C@H](Cn2cc3nccc(C(=O)O)c3n2)OC2CCCC2)cc(OC)c1C [Compound 160, 2-((2S,3R)-2-(cyclopentyloxy)-3-(3,5-dimethoxy-4-methylphenyl)-3-hydroxypropyl)-2H-pyrazolo[4,3-b]pyridine-7-carboxylic acid]
10.1 nM | COc1cc([C@@H](O)[C@H](Cc2nc3c(C(=O)O)cc(F)cc3s2)OCC2CCCC2)cc(OC)c1C [Compound 263]
4.23 nM | COc1cc([C@@H](O)[C@H](Cn2cc3cc(C(F)(F)F)cc(C(=O)O)c3n2)OC2CCCC2)cc(OC)c1C [Compound 163]
79.2 nM | COc1cc([C@@H](O)[C@H](Cn2cc3c(C#N)ccc(C(=O)O)c3n2)OC2CCCC2)cc(OC)c1C [Compound 182]
872 nM | CCc1cc(C(=O)O)c2nc(C[C@H](OC3CCCC3)[C@H](O)c3cc(OC)c(C)c(OC)c3)cn2c1 [Compound 230]
16.3 nM | COc1cc([C@@H](O)[C@H](Cn2cc3nc(C4CC4)cc(C(=O)O)c3n2)OC2CCCC2)cc(OC)c1C [Compound 196]
1760 nM | COc1cc(C(=O)O)c2nc(C[C@@H](OC3CCCC3)[C@H](O)c3cc(OC)c(C)c(OC)c3)sc2c1 [Compound 283]
24.5 nM | COc1cc([C@@H](O)[C@H](Cc2cc3cc(C)cc(C(=O)O)n3n2)OCC(C)C)cc(OC)c1C [Compound 252]
99.4 nM | COc1cc([C@@H](O)[C@H](Cc2nc(CC(=O)O)c(C(C)C)s2)OC2CCCC2)cc(OC)c1C [Compound 223]
15 nM | COc1cc([C@@H](O)[C@H](Cn2cc3nccc(C(=O)O)c3n2)OC2Cc3ccccc3C2)cc(OC)c1C [Compound 185]
32.3 nM | COc1cc([C@@H](O)[C@H](Cn2cc3cc(C)nc(C(=O)O)c3n2)OC2CCCC2)cc(OC)c1C [Compound 195]
717 nM | COc1cc([C@H](O)[C@H](Cc2nc3c(C(=O)O)cccc3s2)OC2CCCC2)cc(OC)c1C [Compound 281]
301 nM | COc1cc([C@@H](O)[C@H](Cc2cn3nccc(C(=O)O)c3n2)OC2CCCC2)cc(OC)c1C [Compound 156]
126 nM | COc1cc([C@@H](O)[C@H](Cn2cc3cccc(C(=O)O)c3n2)OC2CCCC2)cc(OC)c1OC [Compound 147]
525 nM | COc1cc([C@@H](O)[C@H](Cn2cc3cccc(C(=O)O)c3n2)OC2CCCCC2)ccc1C(F)F [Compound 148]

IC50 | SMILES
23.8 nM | COc1cc(C(=O)O)c2nn(C[C@H](OC3CCCC3)[C@H](O)c3cc(OC)c(C)c(OC)c3)cc2n1 [Compound 197]
459 nM | COc1cc([C@@H](O)[C@H](Cn2cc3nccc(C(=O)O)c3n2)OCC(C)C)cc(OC)c1C [Compound 211]
1.65 nM | COc1cc([C@@H](O)[C@H](Cc2nc3c(C(=O)O)cc(Cl)cc3s2)OC2CCCC2)cc(OC)c1C [Compound 246]
2120 nM | COc1cc([C@@H](O)C(Cc2nc(CC(=O)O)c(C(=O)O)s2)OC2CCCC2)cc(OC)c1C (stereo partly drawn) [Compound 206]
26.7 nM | CCc1cc(C(=O)O)n2nc(C[C@H](OCC(C)C)[C@H](O)c3cc(OC)c(C)c(OC)c3)cc2c1 [Compound 241]
≥ 10000 nM | COc1cc([C@@H](O)[C@H](Cc2cn3cccc(C(=O)O)c3n2)OC2CCCC2)cc(OC)c1C [Compound 248]
885 nM | COc1cc([C@@H](O)[C@H](Cc2nc([C@@H](C)C(=O)O)c(C)s2)OC2CCCC2)cc(OC)c1C (single isomer, unassigned) [Compound 240]
103 nM | CCCc1sc(C[C@H](OCC(C)C)[C@H](O)c2cc(OC)c(C)c(OC)c2)nc1C(C)C(=O)O (stereo partly drawn) [Compound 267]
507 nM | COc1cc([C@@H](O)[C@H](Cn2cc3nccc(C(=O)O)c3n2)OC2CCCC2)cc(OC)c1C1CC1 [Compound 205]
10.8 nM | COc1cc([C@@H](O)[C@H](Cn2cc3nc(C#N)cc(C(=O)O)c3n2)OC2CCCC2)cc(OC)c1C [Compound 212]
28 nM | CCCc1sc(C[C@H](OC2CCCC2)[C@H](O)c2cc(OC)c(C)c(OC)c2)nc1[C@H](C)C(=O)O [Compound 260]
3.34 nM | COc1cc([C@@H](O)[C@H](Cc2nc3c(C(=O)O)cc(C(F)(F)F)cc3s2)OC2CCCC2)cc(OC)c1C [Compound 244]
447 nM | COc1cc([C@@H](O)[C@H](Cn2cc3nccc(C(=O)O)c3n2)OC2CCCC2)c(C)cc1C [Compound 188]
31.9 nM | CCCCc1sc(C[C@H](OC2CCCC2)[C@H](O)c2cc(OC)c(C)c(OC)c2)nc1CC(=O)O [Compound 259]
6.28 nM | COc1cc([C@@H](O)[C@H](Cn2cc3cc(C#N)cc(C(=O)O)c3n2)OC2CCCC2)cc(OC)c1C [Compound 165]
7810 nM | COC(=O)Cc1nc(CC(OC2CCCC2)[C@H](O)c2cc(OC)c(C)c(OC)c2)sc1C(=O)O (stereo partly drawn) [Compound 210]
2.19 nM | COc1cc([C@@H](O)[C@H](Cc2nc3c(C(=O)O)cc(C4CC4)cc3s2)OCC(C)C)cc(OC)c1C [Compound 271]
103 nM | COc1cc([C@@H](O)[C@H](Cn2cc3c(=O)n(C)cc(C(=O)O)c3n2)OC2CCCC2)cc(OC)c1C [Compound 174]
29.3 nM | COc1cc([C@@H](O)[C@H](Cn2cc3cc(C#N)cc(C(=O)O)c3n2)OC2CCCC2)ccc1C(F)F [Compound 225]
> 10000 nM | COc1cc([C@@H](O)[C@H](Cc2nc3c(C(=O)O)cccn3n2)OC2CCCC2)cc(OC)c1C [Compound 168]

IC50 | SMILES
22.7 nM | COc1cc([C@@H](O)[C@H](Cc2cc3c(C(=O)O)cccc3s2)OC2CCCC2)cc(OC)c1C [Compound 265, 2-((2S,3R)-2-(cyclopentyloxy)-3-(3,5-dimethoxy-4-methylphenyl)-3-hydroxypropyl)benzo[b]thiophene-4-carboxylic acid]
1130 nM | COc1c(C)ccc([C@@H](O)[C@H](Cn2cc3nccc(C(=O)O)c3n2)OC2CCCC2)c1Cl [Compound 200]
36.8 nM | COc1cc([C@@H](O)[C@H](Cn2cc3cccc(C(=O)O)c3n2)OCC(C)C)cc(OC)c1C [Compound 146]
9.61 nM | COc1cc([C@@H](O)[C@H](Cn2cc3c(OC)ccc(C(=O)O)c3n2)OC2CCCC2)cc(OC)c1C [Compound 216]
812 nM | COc1cc([C@@H](O)[C@H](Cn2nnc3cccc(C(=O)O)c32)OC2CCCC2)cc(OC)c1C (racemic) [Compound 209]
55.8 nM | COc1cc([C@@H](O)[C@H](Cn2cc3ccnc(C(=O)O)c3n2)OC2CCCC2)cc(OC)c1C [Compound 158]
11.1 nM | COc1cc([C@@H](O)[C@H](Cn2cc3cc(C4CC4)nc(C(=O)O)c3n2)OC2CCCC2)cc(OC)c1C [Compound 231]
> 10000 nM | COc1cc([C@@H](O)[C@H](Cn2cc3cccc(C#N)c3n2)OC2CCCC2)cc(OC)c1C [Compound 183]
3.81 nM | COc1cc([C@@H](O)[C@H](Cc2nc3c(C(=O)O)cccc3s2)OC2Cc3ccccc3C2)cc(OC)c1C [Compound 273]
667 nM | COc1cc([C@@H](O)[C@H](Cn2cc3nccc(C(=O)O)c3n2)OC2CCCC2)c(C)c(OC)c1C [Compound 199]
3.93 nM | COc1cc([C@@H](O)[C@H](Cn2cc3cc(C(F)F)cc(C(=O)O)c3n2)OC2CCCC2)cc(OC)c1C [Compound 162]
7640 nM | COc1cc([C@@H](O)[C@H](Cn2cc3c(C(F)(F)F)ccc(C(=O)O)c3n2)OC2CCCC2)cc(OC)c1C [Compound 186]
13 nM | COc1cc([C@@H](O)[C@H](Cc2cc3cc(C)cc(C(=O)O)n3n2)OC2CCCC2)cc(OC)c1C [Compound 218]
4.12 nM | COc1cc([C@@H](O)[C@H](Cc2nc3c(C(=O)O)cc(C)cc3s2)OC2CCCC2)cc(OC)c1C [Compound 256]
4.01 nM | CCc1cc(C(=O)O)c2nn(C[C@H](OC3CCCC3)[C@H](O)c3cc(OC)c(C)c(OC)c3)cc2c1 [Compound 172]
1.93 nM | COc1cc(C(=O)O)c2nc(C[C@H](OC3CCCC3)[C@H](O)c3cc(OC)c(C)c(OC)c3)sc2c1 [Compound 247]
28.9 nM | CCOc1cc([C@@H](O)[C@H](Cn2cc3cc(C#N)cc(C(=O)O)c3n2)OC2CCCC2)cc(OCC)c1C [Compound 226]
11.9 nM | COc1cc(C(=O)O)c2nn(C[C@H](OC3CCCC3)[C@H](O)c3cc(OC)c(C)c(OC)c3)cc2c1 [Compound 164]
> 10000 nM | COc1cc([C@@H](O)[C@H](Cc2nc3cccc(C(=O)O)n3n2)OC2CCCC2)cc(OC)c1C [Compound 167]
327 nM | COc1cc([C@@H](O)[C@H](Cn2cc3nccc(C(=O)O)c3n2)OC2CCCC2)cc(OC)c1Br [Compound 224]
